Among the data in PubChem BioAssay (NCI) are TGI values, retold here.

Some test systems named below: HCT-15 colon; SNB-19 CNS; OVCAR-8 ovarian; MDA-MB-231 breast; BT-549 breast; SK-OV-3 ovarian; HCT-116 colon; COLO 205 colon; MDA-MB-435; NCI-H460 lung; NCI-H522 lung; NCI-H226 lung; SNB-75 CNS; U251 CNS; UO-31 renal; SK-MEL-2 melanoma; SN12C renal.
Test in all cases: growth of human tumour cells (NCI), 48 h

SMILES strings stand for the structures.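 Cells were grown in 96-well plates and exposed to each compound for 48 hours at five concentrations; endpoints were interpolated linearly between bracketing concentrations, or set to the highest concentration if not reached. At the TGI there is no net growth.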

Turning to `CC(NC(=O)C(Cc1ccc(OC(=O)c2ccccc2)cc1)NC(=O)OC(C)(C)C)C(=O)NCC(=O)NC(Cc1ccccc1)C(=O)NN` (stereo not given), the TGI in the experiment with HCT-15 colon, in the experiment on SNB-19 CNS, with OVCAR-8 ovarian, in the experiment on MDA-MB-231 breast, in the experiment with BT-549 breast and with SK-OV-3 ovarian was over 100 µM throughout. For the same compound, the TGI in the experiment with HCT-116 colon is over 100 µM; with COLO 205 colon, 53.2 µM; in the experiment on MDA-MB-435, over 100 µM; in the experiment on NCI-H460 lung, over 100 µM; in the experiment on NCI-H522 lung it was over 100 µM; with NCI-H226 lung, over 100 µM. The TGI with SNB-75 CNS, with U251 CNS and in the experiment on UO-31 renal was over 100 µM in each case.
Consider `O=S(=O)(O)c1ccc2c(N=Nc3ccc(Sc4ccc(N=Nc5c(O)ccc6cc(S(=O)(=O)O)ccc56)cc4)cc3)c(O)ccc2c1`, for which the TGI with HCT-15 colon, with SNB-19 CNS, in the experiment on SK-MEL-2 melanoma, in the experiment with OVCAR-8 ovarian, in the experiment with MDA-MB-231 breast and with BT-549 breast was over 100 µM throughout. Further, the TGI with SK-OV-3 ovarian, in the experiment on HCT-116 colon, with COLO 205 colon, with MDA-MB-435, in the experiment with SN12C renal and with NCI-H460 lung was over 100 µM throughout. Further, the TGI with NCI-H522 lung, in the experiment on NCI-H226 lung, with U251 CNS and in the experiment with UO-31 renal was over 100 µM each time.
For the compound `Cc1ccc(S(=NS(=O)(=O)c2ccc(C)cc2)c2ccc(C)cc2)cc1`, the TGI in the experiment with HCT-15 colon, in the experiment on SNB-19 CNS, in the experiment on OVCAR-8 ovarian, in the experiment on BT-549 breast, with HCT-116 colon and in the experiment on COLO 205 colon was over 100 µM each time. In addition, the TGI with MDA-MB-435, with SN12C renal, in the experiment with NCI-H460 lung, in the experiment with NCI-H226 lung, in the experiment with U251 CNS and in the experiment on UO-31 renal was over 100 µM each time.
`COc1ccc2c(c1)CCC/C2=N\NS(=O)(=O)c1c(C)cc(C)cc1C`: the TGI is 95.3 µM with HCT-15 colon; over 100 µM with SNB-19 CNS; over 100 µM with SK-MEL-2 melanoma; 85.3 µM in the experiment with OVCAR-8 ovarian; over 100 µM in the experiment with MDA-MB-231 breast; 77.2 µM in the experiment with BT-549 breast. Moreover, the TGI was 35.6 µM in the experiment with HCT-116 colon; 57.2 µM in the experiment on COLO 205 colon; over 100 µM with MDA-MB-435; 45.5 µM in the experiment on SN12C renal; 95.3 µM with NCI-H460 lung; 59.8 µM in the experiment with NCI-H226 lung. In addition, the TGI with SNB-75 CNS was 58.9 µM; in the experiment with U251 CNS, over 100 µM; in the experiment on UO-31 renal, over 100 µM.
As for `COc1ccc(-n2cnc3c(NC(Cc4ccccc4)C(=O)O)ncnc32)cc1` (stereo not given), the TGI with HCT-15 colon, in the experiment on SK-MEL-2 melanoma, with OVCAR-8 ovarian, in the experiment on MDA-MB-231 breast, in the experiment with BT-549 breast and in the experiment on SK-OV-3 ovarian was over 100 µM in each case. For the same compound, the TGI in the experiment on HCT-116 colon, in the experiment on COLO 205 colon, in the experiment on MDA-MB-435, in the experiment on SN12C renal, in the experiment on NCI-H460 lung and with NCI-H226 lung was over 100 µM each time. In addition, the TGI in the experiment with SNB-75 CNS, in the experiment with U251 CNS and with UO-31 renal was over 100 µM in each case.
In the case of `O=[N+]([O-])C(C=C(n1nnc2ccccc21)n1nnc2ccccc21)=C(n1nnc2ccccc21)n1nnc2ccccc21`, the TGI in the experiment on HCT-15 colon, in the experiment with SNB-19 CNS, in the experiment on OVCAR-8 ovarian, with MDA-MB-231 breast, in the experiment on BT-549 breast and with SK-OV-3 ovarian was over 100 µM throughout. For the same compound, the TGI in the experiment on HCT-116 colon, with COLO 205 colon, with MDA-MB-435, in the experiment with SN12C renal, with NCI-H460 lung and with NCI-H226 lung was over 100 µM throughout. Moreover, the TGI in the experiment on U251 CNS and in the experiment on UO-31 renal was over 100 µM throughout.
As for `CC(=O)OCC1OC(n2c(-c3ccccc3)c(N=Nc3ccc(C)cc3)c(C)c(C#N)c2=S)C(OC(C)=O)C(OC(C)=O)C1OC(C)=O` (stereo not given), the TGI is 86.6 µM in the experiment with HCT-15 colon; 54.5 µM with SNB-19 CNS; 40.9 µM with SK-MEL-2 melanoma; over 100 µM in the experiment with MDA-MB-231 breast; 19 µM with BT-549 breast; 15.4 µM in the experiment with HCT-116 colon. Further, the TGI was over 100 µM in the experiment with COLO 205 colon; 36.6 µM in the experiment on MDA-MB-435; 28.9 µM with SN12C renal; over 100 µM with NCI-H460 lung; 33.4 µM in the experiment with U251 CNS.
On to `CCOC(=O)C(C/C=C/CO)N(C)C(=O)OC(C)(C)C` (stereo not given), for which the TGI with HCT-15 colon, with SNB-19 CNS, in the experiment with SK-MEL-2 melanoma, with OVCAR-8 ovarian, in the experiment on MDA-MB-231 breast and with BT-549 breast was over 100 µM each time. Also, the TGI with SK-OV-3 ovarian is over 100 µM; with HCT-116 colon it was over 100 µM; with COLO 205 colon it was over 100 µM; with SN12C renal, over 100 µM; in the experiment on NCI-H460 lung, over 100 µM; in the experiment with NCI-H522 lung, 61.4 µM. Also, the TGI with NCI-H226 lung, in the experiment with SNB-75 CNS, in the experiment on U251 CNS and in the experiment on UO-31 renal was over 100 µM throughout.
Turning to `O=C1N(c2ccccc2)C(=S)/C(=C/c2ccc(Cl)cc2)N1c1ccc(Cl)cc1`, the TGI was over 100 µM in the experiment with HCT-15 colon; over 100 µM with SNB-19 CNS; over 100 µM in the experiment with SK-MEL-2 melanoma; over 100 µM in the experiment on OVCAR-8 ovarian; 90.5 µM in the experiment with MDA-MB-231 breast; over 100 µM in the experiment with BT-549 breast. The TGI in the experiment with SK-OV-3 ovarian was 95.7 µM; in the experiment with HCT-116 colon, over 100 µM; in the experiment with COLO 205 colon it was over 100 µM; with MDA-MB-435, over 100 µM; in the experiment on SN12C renal it was over 100 µM; with NCI-H460 lung it was over 100 µM. Further, the TGI is 38.4 µM in the experiment on NCI-H522 lung, 56.2 µM in the experiment on SNB-75 CNS, 96.6 µM in the experiment on U251 CNS and over 100 µM in the experiment with UO-31 renal.
